The source of these data is patent publication US20070212705A1, “P[…]-D CARBOX[…], EXPRESSION AND ACTIVITY” (priority 2005, published 2007).

For orientation: IC50 means the concentration at which inhibition is half-maximal.

One assay deals with T1, PA LDC (Pseudomonas aeruginosa, UniProt Q9HTZ1).
T1 construct: hexahistidine (pET14b N-terminal leader) (N); made in house; host or cells: E. coli BL21 (plasmid pPALDC1, pET14b)
In words: LDC assay (tetrapeptide Lys cleavage, Amplex Red detection of D-Ala) with purified PA LDC. Type of assay: biochemical. Particulars: 10 minutes preincubation at room temperature before tetrapeptide substrate, read-out: IC50, inhibition of PA LDC. Here is the method:
(§1) The assay consists of two parts: (i) cleavage of peptide substrate by LDC enzyme, and (ii) detection of the D-Ala cleavage product using Amplex Red. Conditions for E. coli LDC cleavage were established using a modification of conditions presented by Templin et al. (1999). The cleavage assay was assembled in black 96 half area flat bottom plates (Costar, 3694) (Corning Life Sciences, Acton, Mass.) and consisted of LDC at the indicated concentration in 30 μl (microliters) of 100 mM (milliMolar) Tris-HCl pH 8.5 containing 25 μg/ml of bovine serum albumin (B4287 Sigma, St. Louis, Mo.). “Tetrapeptide Lys” substrate L-Ala-γ-D-Glu-L-Lys-D-Ala was synthesized by SynPep, Inc. (Dublin, Calif.). […] Inhibitor compounds were added to the enzyme in 2 μl of 30% dimethyl sulfoxide and incubated for 10 minutes at room temperature, prior to the addition of tetrapeptide. The negative control received 2 μl of 30% dimethyl sulfoxide alone without any compound.
(§2) The principle of the detection system is oxidation of D-Ala by the enzyme D-amino acid oxidase to produces hydrogen peroxide. […] The detection reaction was incubated for 30 minutes at 37° C., and the plates were read on a SpectraMax Gemini (excitation 530 nm, emission 590 nm) (Molecular Devices, Sunnyvale, Calif.). […]

For another assay, the target named is E. coli LDC (Escherichia coli, UniProt P76008). In words: LDC assay (tetrapeptide cleavage, Amplex Red detection) with E. coli LDC. The class given is biochemical. As to the method: as §1, §2
For the next assay, the target named is LDC (Escherichia coli, UniProt P76008). Particulars: Templin et al., 1999; cited from earlier work.
Chain of LDC (P76008 whole entry): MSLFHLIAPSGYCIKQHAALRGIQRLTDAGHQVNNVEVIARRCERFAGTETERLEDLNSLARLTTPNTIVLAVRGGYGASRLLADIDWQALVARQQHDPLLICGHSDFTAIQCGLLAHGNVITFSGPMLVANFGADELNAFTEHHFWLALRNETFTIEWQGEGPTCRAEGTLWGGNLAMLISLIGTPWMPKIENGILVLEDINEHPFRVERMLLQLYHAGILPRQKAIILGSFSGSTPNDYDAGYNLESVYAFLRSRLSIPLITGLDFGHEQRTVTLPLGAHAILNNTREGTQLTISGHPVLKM

Chain of E. coli LDC (P76008 whole entry): as above
T1 sequence (Q9HTZ1 whole entry): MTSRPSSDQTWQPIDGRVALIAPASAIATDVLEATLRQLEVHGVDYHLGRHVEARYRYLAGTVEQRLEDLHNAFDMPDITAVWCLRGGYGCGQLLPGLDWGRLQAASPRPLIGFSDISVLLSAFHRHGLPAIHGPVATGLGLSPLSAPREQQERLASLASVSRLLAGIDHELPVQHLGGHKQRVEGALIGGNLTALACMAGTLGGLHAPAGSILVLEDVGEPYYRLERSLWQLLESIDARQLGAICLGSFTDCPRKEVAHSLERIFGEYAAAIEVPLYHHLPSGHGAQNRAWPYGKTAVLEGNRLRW

With `O=C(Sc1nc2ccccc2nc1SC(=O)c1cc2ccccc2o1)c1cc2ccccc2o1` [2-Benzofurancarbothioic acid, S,S′-2,3-quinoxalinediyl ester], the IC50 is 0.1 µM on PA LDC and 1.4 µM against E. coli LDC. On to `O=C(O)C=CC(=O)c1ccc2c(c1)NC(=O)CO2` [3,4-dihydro-g,3-dioxo-2H-1,4-Benzoxazine-6-crotonic acid], for which the IC50 was found to be 170 µM at PA LDC and 12 µM against E. coli LDC. Turning to `N[C@H](CCOc1ccc(/C(=N/O)C(=O)N[C@H]2CN([C@@H](C(=O)O)c3ccc(O)cc3)C2=O)cc1)C(=O)O` [Nocardicin A], on LDC, the “Inhibition of LDC” value was “inhibited”.
